According to US9040663B2, “Melanocortin receptor-specific peptides” (AstraZeneca AB, priority 2009, dated 2015):
Read-outs that look alike come from different tables or passages of the source. Positions of bridges follow the written chain, without caps; N, C: chain ends. Non-standard residues stand in square brackets, D forms with d. Residues, ends and D or L forms follow the SMILES beside them. dPhe(4-CN) = N#Cc1ccc(C[C@@H](N)C(=O)O)cc1; Orn = NCCC[C@H](N)C(=O)O

Tests used:
[1] = target: T1, hMC4-R (Homo sapiens (Human), UniProt P32245); assay: Competitive inhibition binding assay using [I125]-NDP-α-MSH, hMC4-R; conditions: membranes of HEK-293 cells expressing recombinant hMC4-R, read-out: MC4-R Ki
[2] = target: MC1-R; assay: Competitive inhibition binding assay using [I125]-NDP-α-MSH, MC1-R; conditions: membranes of B-16 mouse melanoma cells (endogenous MC1-R), in some instances HEK-293 hMC1-R
Method: 7.1 Competitive Inhibition Assay using [I^125]-NDP-α-MSH.
A competitive inhibition binding assay was performed for exemplified peptides according to the invention using membrane homogenates prepared from HEK-293 cells that express recombinant hMC4-R, hMC3-R, or hMC5-R, and from B-16 mouse melanoma cells (containing endogenous MC1-R). In some instances, HEK-293 cells that express recombinant hMC1-R were employed. Assays were performed in 96 well GF/B Millipore multiscreen filtration plates (MAFB NOB10) pre-coated with 0.5% bovine serum albumin (Fraction V). Membrane homogenates were incubated with 0.2 nM (for hMC4-R) 0.4 nM (for MC3-R and MC5-R) or 0.1 nM (for mouse B16 MC1-R or hMC1-R) [I^125]-NDP-α-MSH (Perkin Elmer) and increasing concentrations of test peptides of the present invention in buffer containing 25 mM HEPES buffer (pH 7.5) with 100 mM NaCl, 2 mM CaCl2, 2 mM MgCl2, 0.3 mM 1,10-phenanthroline, and 0.2% bovine serum albumin. After incubation for 60 minutes at 37° C., the assay mixture was filtered and the membranes washed three times with ice-cold buffer. Filters were dried and counted in a gamma counter for bound radioactivity. […] Maximal specific binding (100%) was defined as the difference in radioactivity (cpm) bound to cell membranes in the absence and presence of 1 μM NDP-α-MSH. […] Each assay was conducted in triplicate and the actual mean values are described, with results less than 0% reported as 0%. Ki values for test peptides of the present invention were determined using Graph-Pad Prism® curve-fitting software.

[3] = target: T1, hMC4-R; assay: High and low density hMC4-R functional assay (cAMP, HEK293-T-REx-MC4-R cells); assay type: cell-based; conditions: for Emax: NDP-α-MSH = 100%, read-out: Intrinsic Activity (%)
[4] = 0.1 ng/mL Doxycycline (low density hMC4-R system)
[5] = 10 ng/mL Doxycycline (high density hMC4-R system)

T1 sequence (P32245 whole entry): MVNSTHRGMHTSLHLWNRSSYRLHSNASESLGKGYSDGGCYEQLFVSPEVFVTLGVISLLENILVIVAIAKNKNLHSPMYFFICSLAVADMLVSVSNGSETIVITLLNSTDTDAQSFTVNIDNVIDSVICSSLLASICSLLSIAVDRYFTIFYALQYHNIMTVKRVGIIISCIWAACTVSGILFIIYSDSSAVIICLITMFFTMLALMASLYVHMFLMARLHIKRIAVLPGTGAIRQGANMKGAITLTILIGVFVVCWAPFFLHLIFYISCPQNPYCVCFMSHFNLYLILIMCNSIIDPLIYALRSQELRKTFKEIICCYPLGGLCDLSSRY

SMILES	Ki [1] [nM]	Ki [2] [nM]	EC50 [3, 4] [nM]	Emax [3, 4] [%]	Emax [3, 5] [%]	EC50 [3, 5] [nM]
CC(=O)N[C@@H](CCCNC(=N)N)C(=O)N[C@H]1CCC(=O)NCCC[C@@H](C(N)=O)NC(=O)[C@H](Cc2c[nH]c3ccccc23)NC(=O)[C@H](CCCNC(=N)N)NC(=O)[C@@H](Cc2ccc(C#N)cc2)NC(=O)[C@H]([C@@H](C)O)NC1=O [Example 44, Ac-Arg-cyclo(Glu-Thr-D-Phe(4-CN)-Arg-Trp-Orn)-NH2]	18	1620	11	22	99	–
CC(=O)N[C@@H](CCCNC(=N)N)C(=O)N[C@H]1CCC(=O)NCCC[C@@H](C(N)=O)NC(=O)[C@H](Cc2c[nH]c3ccccc23)NC(=O)[C@H](CCCNC(=N)N)NC(=O)[C@@H](Cc2ccccc2Cl)NC(=O)[C@H](CCN)NC1=O [Example 1, Ac-Arg-cyclo(Glu-Dab-D-Phe(2-Cl)-Arg-Trp-Orn)-NH2]	3	1	0.34	91	96	0.045
CC(=O)N[C@@H](CCCNC(=N)N)C(=O)N[C@H]1CCC(=O)NCCC[C@@H](C(N)=O)NC(=O)[C@H](Cc2c[nH]c3ccccc23)NC(=O)[C@H](CCCNC(=N)N)NC(=O)[C@@H](Cc2ccccc2Cl)NC(=O)[C@@H]2C[C@@H](O)CN2C1=O [Example 33, Ac-Arg-cyclo(Glu-Hyp-D-Phe(2-Cl)-Arg-Trp-Orn)-NH2]	1	143	1	41	98	0.153
CC(=O)N[C@@H](CCCNC(=N)N)C(=O)N[C@H]1CCC(=O)NCCC[C@@H](C(N)=O)NC(=O)[C@H](Cc2c[nH]c3ccccc23)NC(=O)[C@H](CCCNC(=N)N)NC(=O)[C@@H](Cc2ccc(C#N)cc2)NC(=O)[C@H](CCC(=O)O)NC1=O [Example 108, Ac-Arg-cyclo(Glu-Glu-D-Phe(4-CN)-Arg-Trp-Orn)-NH2] (Ac-REE[dPhe(4-CN)]RW[Orn]-NH2; lactam 2-7)	–	10000	–	3	59	9
CC(=O)N[C@@H](CCCNC(=N)N)C(=O)N[C@H]1CCC(=O)NCCC[C@@H](C(=O)O)NC(=O)[C@H](Cc2c[nH]c3ccccc23)NC(=O)[C@H](CCCNC(=N)N)NC(=O)[C@@H](Cc2ccc(C#N)cc2)NC(=O)[C@H](CCC(N)=O)NC1=O [Example 86, Ac-Arg-cyclo(Glu-Gln-D-Phe(4-CN)-Arg-Trp-Orn)-OH]	–	3970	9	36	96	–
CC(=O)N[C@@H](CCCNC(=N)N)C(=O)N[C@H]1CCC(=O)NCCC[C@@H](C(N)=O)NC(=O)[C@H](Cc2c[nH]c3ccccc23)NC(=O)[C@H](CCCNC(=N)N)NC(=O)[C@@H](Cc2ccccc2F)NC(=O)[C@H](CO)NC1=O [Example 58, Ac-Arg-cyclo(Glu-Ser-D-Phe(2-F)-Arg-Trp-Orn)-NH2]	–	138	5	67	100	0.25
CC(=O)N[C@@H](CCCNC(=N)N)C(=O)N[C@H]1CCCNC(=O)CC[C@@H](C(N)=O)NC(=O)[C@H](Cc2c[nH]c3ccccc23)NC(=O)[C@H](CCCNC(=N)N)NC(=O)[C@@H](Cc2cc(F)cc(F)c2)NC(=O)[C@H](CC(N)=O)NC1=O [Example 77, Ac-Arg-cyclo(Orn-Asn-D-Phe(3,5-diF)-Arg-Trp-Glu)-NH2]	8	–	3	34	80	–
CC(=O)N[C@@H](CCCNC(=N)N)C(=O)N[C@H]1CCC(=O)NCCC[C@@H](C(N)=O)NC(=O)[C@H](Cc2c[nH]c3ccccc23)NC(=O)[C@H](CCCNC(=N)N)NC(=O)[C@@H](Cc2ccc(C#N)cc2)NC(=O)[C@H](CC(=O)O)NC1=O [Example 106, Ac-Arg-cyclo(Glu-Asp-D-Phe(4-CN)-Arg-Trp-Orn)-NH2] (Ac-RED[dPhe(4-CN)]RW[Orn]-NH2; lactam 2-7)	–	10000	–	3	77	–
CC(=O)N[C@@H](CCCNC(=N)N)C(=O)N[C@H]1CCCNC(=O)CC[C@@H](C(N)=O)NC(=O)[C@H](Cc2c[nH]c3ccccc23)NC(=O)[C@H](CCCNC(=N)N)NC(=O)[C@@H](Cc2ccccc2C(F)(F)F)NC(=O)[C@H](CC(N)=O)NC1=O [Example 117, Ac-Arg-cyclo(Orn-Asn-D-Phe(2-CF3)-Arg-Trp-Glu)-NH2]	5	–	1	50	112	–
COc1cccc(C[C@H]2NC(=O)[C@H](CCN)NC(=O)[C@@H](NC(=O)[C@H](CCCNC(=N)N)NC(C)=O)CCC(=O)NCCC[C@@H](C(N)=O)NC(=O)[C@H](Cc3c[nH]c4ccccc34)NC(=O)[C@H](CCCNC(=N)N)NC2=O)c1 [Example 87, Ac-Arg-cyclo(Glu-Dab-D-Phe(3-OMe)-Arg-Trp-Orn)-NH2]	3	–	1	64	100	0.065
COc1ccc(C[C@H]2NC(=O)[C@H](CCN)NC(=O)[C@@H](NC(=O)[C@H](CCCNC(=N)N)NC(C)=O)CCC(=O)NCCC[C@@H](C(N)=O)NC(=O)[C@H](Cc3c[nH]c4ccccc34)NC(=O)[C@H](CCCNC(=N)N)NC2=O)cc1OC [Example 25, Ac-Arg-cyclo(Glu-Dab-D-Phe(3,4-diOMe)-Arg-Trp-Orn)-NH2]	35	–	75	23	94	2
CC(=O)N[C@@H](CCCNC(=N)N)C(=O)N[C@H]1CCCNC(=O)CC[C@@H](C(N)=O)NC(=O)[C@H](Cc2c[nH]c3ccccc23)NC(=O)[C@H](CCCNC(=N)N)NC(=O)[C@@H](Cc2ccccc2Cl)NC(=O)[C@H](CCC(N)=O)NC1=O [Example 112, Ac-Arg-cyclo(Orn-Gln-D-Phe(2-Cl)-Arg-Trp-Glu)-NH2]	4	–	–	83	101	0.07
CC(=O)N[C@H](CCCNC(=N)N)C(=O)N[C@H]1CC(=O)NCCCC[C@@H](C(N)=O)NC(=O)[C@H](Cc2c[nH]c3ccccc23)NC(=O)[C@H](CCCNC(=N)N)NC(=O)[C@@H](Cc2ccc(F)c(F)c2)NC(=O)[C@H](CCC(N)=O)NC1=O [Example 78, Ac-D-Arg-cyclo(Asp-Gln-D-Phe(3,4-diF)-Arg-Trp-Lys)-NH2]	8	–	2	48	89	0.2
CC(=O)N[C@@H](CCCNC(=N)N)C(=O)N[C@H]1CCC(=O)NCCC[C@@H](C(N)=O)NC(=O)[C@H](Cc2c[nH]c3ccccc23)NC(=O)[C@H](CCCNC(=N)N)NC(=O)[C@@H](Cc2ccccc2Cl)NC(=O)[C@@H]2CCCN2C1=O [Example 88, Ac-Arg-cyclo(Glu-Pro-D-Phe(2-Cl)-Arg-Trp-Orn)-NH2]	5	–	3	15	89	0.35
CC(=O)N[C@H](CCCNC(=N)N)C(=O)N[C@H]1CCCNC(=O)CC[C@@H](C(N)=O)NC(=O)[C@H](Cc2c[nH]c3ccccc23)NC(=O)[C@H](CCCNC(=N)N)NC(=O)[C@@H](Cc2ccc(F)c(F)c2)NC(=O)[C@H](Cc2c[nH]cn2)NC1=O [Example 54, Ac-D-Arg-cyclo(Orn-His-D-Phe(3,4-diF)-Arg-Trp-Glu)-NH2]	0.25	–	0.075	56	92	0.075
CC(=O)N[C@@H](CCCNC(=N)N)C(=O)N[C@H]1CCCNC(=O)CC[C@@H](C(N)=O)NC(=O)[C@H](Cc2c[nH]c3ccccc23)NC(=O)[C@H](CCCNC(=N)N)NC(=O)[C@@H](Cc2cccc(C)c2)NC(=O)[C@H](CC(N)=O)NC1=O [Example 72, Ac-Arg-cyclo(Orn-Asn-D-Phe(3-Me)-Arg-Trp-Glu)-NH2]	4	–	3	11	84	0.35
CC(=O)N[C@@H](CCCNC(=N)N)C(=O)N[C@H]1CCCNC(=O)CC[C@@H](C(N)=O)NC(=O)[C@H](Cc2c[nH]c3ccccc23)NC(=O)[C@H](CCCNC(=N)N)NC(=O)[C@@H](Cc2ccccc2Cl)NC(=O)[C@H](CC(N)=O)NC1=O [Example 113, Ac-Arg-cyclo(Orn-Asn-D-Phe(2-Cl)-Arg-Trp-Glu)-NH2]	7	–	–	80	100	0.065
CC(=O)N[C@@H](CCCNC(=N)N)C(=O)N[C@H]1CCC(=O)NCCC[C@@H](C(=O)O)NC(=O)[C@H](Cc2c[nH]c3ccccc23)NC(=O)[C@H](CCCNC(=N)N)NC(=O)[C@@H](Cc2ccc(C#N)cc2)NC(=O)[C@H](CC(=O)O)NC1=O [Example 107, Ac-Arg-cyclo(Glu-Asp-D-Phe(4-CN)-Arg-Trp-Orn)-OH] (Ac-RED[dPhe(4-CN)]RW[Orn]-OH; lactam 2-7)	–	10000	–	4	64	–
